Data from patent publication US11718585B2, “Bis-cyclic guanidines as antibacterial agents” (University of South Florida, priority 2017, dated 2023).
One block for each molecule: values may come before it.

What was measured:
[1] = test system: six bacteria strains; assay: MIC, summary statements over the panel of tested bacteria; type: cell-based
Procedure: (§1) Minimum Inhibitory Concentrations (MICs) against Bacteria. The antimicrobial activity of the compounds was tested on the following six bacteria strains: K. pneumoniae (ATCC 13383), P. aeruginosa (ATCC27853), E. coli (ATCC 25922), vancomycin-resistant Enterococcus faecalis (ATCC 700802), Methicillin-resistant S. aureus (MRSA, ATCC 33591), Methicillin-resistant S. epidermidis (MRSE, RP62A). The procedures were followed as reported previously (Hancock et al., Immunobiology 2006, 211, 315-322). Briefly, a single colony of each bacterium was inoculated in 3 mL TSB medium and incubated overnight at 37° C. Then the bacteria culture was diluted at 1:100 and the bacteria were allowed to grow to mid-logarithmic phase. Next, 50 μL of 2-fold serial dilutions of compounds (0.1-25 μg/mL) were added the 96-well plate containing aliquots of 50 μL of bacteria suspension (1×10^6 CFU/mL) in each well. The mixture was incubated at 37° C. for 16 h, and their absorption at 600 nm wavelength was read on a Biotek Synergy HT microtiter plate reader. […] The experiments were repeated at least three times with duplicates each time. HC50 means the concentration causing 50% hemolysis.

[2] = test system: E. coli; assay: Time-kill study; type: cell-based; details: for time to completely remove/kill all bacteria: 12.5 μg/mL
Procedure: The killing activity was monitored for the first 2 h. The concentrations for compound 11 were 2×MIC, 4×MIC, and 8×MIC, respectively.
Time-kill studies were conducted to investigate the bacterial killing kinetics of compounds 11 and 12 by using E. Coli. Briefly, the bacteria […] grew to mid-logarithmic phase in TSB medium, from which the suspension (10^6 CFU/ml) was made. The suspension was incubated with different concentrations of 11 or 12 for 10 min, 30 min, 1 h and 2 h respectively. The mixtures were diluted by 10^2 to 10^4 fold and spread on TSB agar plates. After incubation at 37° C. overnight, the colonies on the plates were counted and plotted against the incubation time. […] Cell colonies were counted in agar plates at 12.5, 25, and 50 μg/mL. Compound 11 at the concentration of 12.5 or 25 μg/mL completely removed all bacteria in 2 hours, and at 50 μg/mL it completely removed bacteria in 0.5 hour. Compound 12 killed E. Coli completely in 0.5 hour at the concentration of 12.5 μg/mL.

[3] = test system: E. coli (ATCC 25922); assay: Minimum inhibitory concentration (MIC) against E. coli; type: cell-based; details: Escherichia coli, ATCC25922; Gram −; 16 h, 37° C.
Procedure: as §1

[4] = test system: vancomycin-resistant Enterococcus faecalis (ATCC 700802); assay: MIC against VRE; type: cell-based; details: Gram +; 16 h, 37° C.
Procedure: as §1

[5] = test system: P. aeruginosa (ATCC27853); assay: MIC against P. aeruginosa; type: cell-based
Procedure: as §1

[6] = test system: human red blood cells (hRBCs); assay: Hemolytic assay; type: cell-based; details: concentration causing 50% hemolysis, 37° C., 1 h
Procedure: Hemolytic assays. The freshly drawn, K2EDTA treated human red blood cells (hRBCs) were washed with 1×PBS buffer, and centrifuged at 3500 rpm for 10 min. The step was repeated until the supernatant became clear. The supernatant was removed, and the RBCs were diluted into 5% v/v suspension. 50 μL of the suspension was incubated with 50 μL of compounds of different concentrations at 37° C. for 1 h. The mixture was centrifuged at 3500 rpm for 10 min. Subsequently, to 30 μL of the supernatant 100 μL PBS was added, and the absorbance of the mixture at 540 nm was read on a Biotek Synergy HT plate reader. The positive control was 2% Triton X-100, and the negative control was 1×PBS alone. The hemolysis activity was calculated by the formula % hemolysis=(Abssample−AbsPBS)/(AbsTriton−AbsPBS)×100%. The experiment was repeated at least three times with duplicates each time.

[7] = test system: K. pneumoniae (ATCC 13383); assay: MIC against K. pneumoniae; type: cell-based; details: Klebsiella pneumoniae, ATCC13383; Gram −; 16 h, 37° C.
Procedure: as §1

[8] = test system: Methicillin-resistant S. epidermidis (MRSE, RP62A); assay: MIC against MRSE; type: cell-based; details: Staphylococcus epidermidis, Gram +, 16 h, 37° C.
Procedure: as §1

[9] = test system: Methicillin-resistant S. aureus (MRSA, ATCC 33591); assay: MIC against MRSA; type: cell-based; details: Staphylococcus aureus; Gram +; 16 h, 37° C.
Procedure: as §1

[10] = test system: S. aureus; assay: Fluorescence microscopy (DAPI/PI) of bacterial membranes, S. aureus; type: cell-based; details: 10 μg/mL, 2 h
Procedure: (§2) Fluorescence microscopy studies were conducted to evaluate the ability of compound 12 to compromise membranes of S. aureus (Gram-positive bacterium) and E. coli (Gram-negative bacterium). Fluorescent agent 4′,6-diamidino-2-phenylindole (DAPI) was used to stain membranes of bacterial cells with blue fluorescence regardless of cell viability, and the red fluorescence of propidium iodide (PI) due to the DNA intercalation was used to stain impaired membranes. After MRSA and E. Coli grew to mid-logarithmic phase, the compound 12 was incubated with the bacteria at 37° C. for 2 h. The mixture was then centrifuged at 5000 rpm for 15 min. The cell pellets were washed with the PBS buffer for three times, and incubated with PI (5 μg/mL) and DAPI (10 μg/mL) for 15 min sequentially on ice in the dark. The mixture was then centrifuged and the pellets were washed with the PBS buffer. Next, 10 μL of the samples were placed on chamber slides and observed under Zeiss Axio Image Zloptical microscope using 100× oil-immersion objective.

[11] = test system: E. coli; assay: Fluorescence microscopy (DAPI/PI) of bacterial membranes, E. coli; type: cell-based; details: 10 μg/mL, 2 h
Procedure: as §2

[12] = test system: E. coli; assay: Drug-resistance study, 14 passages, E. coli; type: cell-based; details: incubated at ½ MIC every day
Procedure: (§3) Bacterial resistance tests were conducted using compound 12. The compound was incubated with either MRSA or E. Coli in the well at the concentration of half-MIC (½ MIC, 10^6 CFU/ml) every day and tested for their activity through 14 successive passages.

[13] = test system: MRSA; assay: Drug-resistance study, 14 passages, MRSA; type: cell-based, S. aureus; details: incubated at ½ MIC every day
Procedure: as §3

Structure (SMILES): N#CNc1cccc(NC(=O)CN2C[C@H](Cc3ccccc3)N(CCCc3ccccc3)C2=N)c1 [Compound 7]
antibacterial activity against the tested bacteria (in words) [1]: negligible activity

Structure (SMILES): CCCCCCCCN1C(=N)N(CC(=O)Nc2cccc(NC(=O)CN3C[C@H](Cc4ccccc4)N(CCCCCCCC)C3=N)c2)C[C@@H]1Cc1ccccc1 [Compound 18]
antibacterial activity against the tested bacteria (in words) [1]: decreased activity

Structure (SMILES): CCCCCCN1C(=N)N(CC(=O)Nc2ccc(NC(=O)CN3C[C@H](Cc4ccccc4)N(CCCCCC)C3=N)cc2)C[C@@H]1Cc1ccccc1 [Compound 11]
antibacterial activity against the tested bacteria (in words) [1]: potent and broad-spectrum activity
time to completely remove/kill all bacteria [2]: 2 h
time to completely remove bacteria ([2]; 50 μg/mL): 0.5 h

MIC [3]: 1.5 to 3 µg/mL
MIC [4]: 6 to 12 µg/mL
MIC ([5]; Pseudomonas aeruginosa, ATCC27853, Gram −, 16 h, 37° C.): > 25 µg/mL
MIC [7]: > 25 µg/mL
MIC [8]: 1.5 µg/mL
MIC [9]: 0.75 µg/mL
Structure (SMILES): CCCCCCN1C(=N)N(CC(=O)NCCCOCCOCCOCCCNC(=O)CN2C[C@H](Cc3ccccc3)N(CCCCCC)C2=N)C[C@@H]1Cc1ccccc1 [Compound 16]
Hemolysis (HC50) [6]: 200 µg/mL
antibacterial activity against the tested bacteria (in words) [1]: reduced activity

Structure (SMILES): CCCCCCN1C(=N)N(CC(=O)NCCCCCCCCNC(=O)CN2C[C@H](Cc3ccccc3)N(CCCCCC)C2=N)C[C@@H]1Cc1ccccc1 [Compound 15]
activity against P. aeruginosa (in words) [5]: reduced activity

Structure (SMILES): CCCCCCN1C(=N)N(CC(=O)NCCCCCCNC(=O)CN2C[C@H](Cc3ccccc3)N(CCCCCC)C2=N)C[C@@H]1Cc1ccccc1 [Compound 14]
activity against P. aeruginosa (in words) [5]: reduced activity

Structure (SMILES): CCCCCCCCN1C(=N)N(CC(=O)Nc2ccc(NC(=O)CN3C[C@H](Cc4ccccc4)N(CCCCCCCC)C3=N)cc2)C[C@@H]1Cc1ccccc1 [Compound 17]
antibacterial activity against the tested bacteria (in words) [1]: decreased activity

MIC [3]: 0.75 to 1.5 µg/mL
Structure (SMILES): CCCCCCN1C(=N)N(CC(=O)NCCCCNC(=O)CN2C[C@H](Cc3ccccc3)N(CCCCCC)C2=N)C[C@@H]1Cc1ccccc1 [Compound 13]
activity against P. aeruginosa (in words) [5]: reduced activity

Structure (SMILES): N=C1N(CC(=O)Nc2cccc(NC(N)=O)c2)C[C@H](Cc2ccccc2)N1CCCc1ccccc1 [Compound 8]
antibacterial activity against the tested bacteria (in words) [1]: negligible activity

Structure (SMILES): CCCCCCN1C(=N)N(CC(=O)Nc2cccc(NC(=O)CN3C[C@H](Cc4ccccc4)N(CCCCCC)C3=N)c2)C[C@@H]1Cc1ccccc1 [Compound 12]
membrane disruption (red fluorescence under the PI channel) [10]: membranes of these bacteria were disrupted
membrane disruption (red fluorescence under the PI channel) [11]: membranes of these bacteria were disrupted
MIC after 14 passages [12]: virtually constant
antibacterial activity against the tested bacteria (in words) [1]: potent and broad-spectrum activity
MIC after 14 passages [13]: virtually constant
time to completely remove/kill all bacteria [2]: 0.5 h

MIC [9]: 0.75 to 1.5 µg/mL
Structure (SMILES): CCCCCCN1C(=N)N(CC(=O)Nc2cccc(NC(=O)CN3C[C@H](CC(C)C)N(CCCCCC)C3=N)c2)C[C@@H]1CC(C)C [Compound 23]
antibacterial activity against the tested bacteria (in words) [1]: slightly less effective
